Reference: PubChem BioAssay AID1963961 (Molecular Pharmacology Branch, DTP, NCI, 2024)

Tested on: K98450-129-R-PDC multicell spheroids, viability
Experiment: Anticancer human tumor K98450-129-R-PDC patient-derived colon adenocarcinoma cell line growth inhibition [PI3K]
Settings: for IC50: curve of first compound; for viability, T/C: stronger effect = lower value
Procedure, shortened: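 Tumor cells grown as multi-cell spheroids with HUVEC endothelial cells and MSC fibroblast-like stroma were treated with targeted agents combined with inavolisib, alpelisib, duvelisib or copanlisib. Doses fell in half-log steps from near clinical Cmax, else from 10 microM. Viability was measured.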

[1] = second compound 0.0316 µM, first compound 0.0316 µM
[2] = second compound 0.0316 µM, first compound 0.1 µM
[3] = second compound 0.0316 µM, first compound 0.316 µM
[4] = second compound 0.0316 µM, first compound 1 µM
[5] = second compound 0.0316 µM, first compound 3.16 µM
[6] = second compound 0.0316 µM, first compound 10 µM
[7] = second compound 0.1 µM, first compound 0.0316 µM
[8] = second compound 0.1 µM, first compound 0.1 µM
[9] = second compound 0.1 µM, first compound 0.316 µM
[10] = second compound 0.1 µM, first compound 1 µM
[11] = second compound 0.1 µM, first compound 3.16 µM
[12] = second compound 0.1 µM, first compound 10 µM
[13] = second compound 0.316 µM, first compound 0.0316 µM
[14] = second compound 0.316 µM, first compound 0.1 µM
[15] = second compound 0.316 µM, first compound 0.316 µM
[16] = second compound 0.316 µM, first compound 1 µM
[17] = second compound 0.316 µM, first compound 3.16 µM
[18] = second compound 0.316 µM, first compound 10 µM
[19] = second compound 1 µM, first compound 0.0316 µM
[20] = second compound 1 µM, first compound 0.1 µM
[21] = second compound 1 µM, first compound 0.316 µM
[22] = second compound 1 µM, first compound 1 µM
[23] = second compound 1 µM, first compound 3.16 µM
[24] = second compound 1 µM, first compound 10 µM
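Further: spheroids exposed to agents for seven days before read-out.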

## CC1(C)CCC(Nc2ncc(C(F)(F)F)c(-c3c[nH]c4c(P(C)(C)=O)c(C#N)ccc34)n2)CN1 (stereo unspecified) + CC(Nc1ccc2c(c1)OCCn1cc(N3C(=O)OCC3C(F)F)nc1-2)C(N)=O
Second compound 0.00316 µM
  IC50: > 10 µM
Second compound 0.01 µM
  IC50: > 10 µM
Second compound 0.0316 µM
  IC50: > 10 µM
Second compound 0.1 µM
  IC50: > 10 µM
Second compound 0.316 µM
  IC50: > 10 µM
Second compound 1 µM
  IC50: > 10 µM
Second compound 0.00316 µM, first compound 0.0316 µM
  viability, T/C: 108%
Second compound 0.00316 µM, first compound 0.1 µM
  viability, T/C: 103%
Second compound 0.00316 µM, first compound 0.316 µM
  viability, T/C: 95.8%
Second compound 0.00316 µM, first compound 1 µM
  viability, T/C: 67.7%
Second compound 0.00316 µM, first compound 3.16 µM
  viability, T/C: 64.1%
Second compound 0.00316 µM, first compound 10 µM
  viability, T/C: 63.8%
Second compound 0.01 µM, first compound 0.0316 µM
  viability, T/C: 116%
Second compound 0.01 µM, first compound 0.1 µM
  viability, T/C: 98.2%
Second compound 0.01 µM, first compound 0.316 µM
  viability, T/C: 92.7%
Second compound 0.01 µM, first compound 1 µM
  viability, T/C: 68.9%
Second compound 0.01 µM, first compound 3.16 µM
  viability, T/C: 67.2%
Second compound 0.01 µM, first compound 10 µM
  viability, T/C: 62.2%
[1]
  viability, T/C: 116%
[2]
  viability, T/C: 109%
[3]
  viability, T/C: 81.5%
[4]
  viability, T/C: 66.8%
[5]
  viability, T/C: 69.3%
[6]
  viability, T/C: 65.5%
[7]
  viability, T/C: 105%
[8]
  viability, T/C: 107%
[9]
  viability, T/C: 82.6%
[10]
  viability, T/C: 66.9%
[11]
  viability, T/C: 67.8%
[12]
  viability, T/C: 61.2%
[13]
  viability, T/C: 100%
[14]
  viability, T/C: 101%
[15]
  viability, T/C: 85.4%
[16]
  viability, T/C: 69.3%
[17]
  viability, T/C: 66.7%
[18]
  viability, T/C: 60.7%
[19]
  viability, T/C: 91.9%
[20]
  viability, T/C: 90.1%
[21]
  viability, T/C: 79.1%
[22]
  viability, T/C: 67.5%
[23]
  viability, T/C: 69.6%
[24]
  viability, T/C: 60.6%

## CNC(=O)c1ccc(N2C(=S)N(c3ccc(C#N)c(C(F)(F)F)c3)C(=O)C2(C)C)cc1F + CC(Nc1ncnc2nc[nH]c12)c1cc2cccc(Cl)c2c(=O)n1-c1ccccc1
Second compound 0.0316 µM
  IC50: > 10 µM
Second compound 0.1 µM
  IC50: > 10 µM
Second compound 0.316 µM
  IC50: > 10 µM
Second compound 1 µM
  IC50: > 10 µM
Second compound 3.16 µM
  IC50: > 10 µM
Second compound 10 µM
  IC50: > 10 µM
[1]
  viability, T/C: 109%
[2]
  viability, T/C: 100%
[3]
  viability, T/C: 104%
[4]
  viability, T/C: 83.1%
[5]
  viability, T/C: 104%
[6]
  viability, T/C: 88.9%
[7]
  viability, T/C: 116%
[8]
  viability, T/C: 94%
[9]
  viability, T/C: 106%
[10]
  viability, T/C: 108%
[11]
  viability, T/C: 88.8%
[12]
  viability, T/C: 101%
[13]
  viability, T/C: 104%
[14]
  viability, T/C: 99.3%
[15]
  viability, T/C: 97.2%
[16]
  viability, T/C: 92.3%
[17]
  viability, T/C: 112%
[18]
  viability, T/C: 109%
[19]
  viability, T/C: 92.8%
[20]
  viability, T/C: 90.7%
[21]
  viability, T/C: 95.5%
[22]
  viability, T/C: 102%
[23]
  viability, T/C: 99.8%
[24]
  viability, T/C: 97.1%
Second compound 3.16 µM, first compound 0.0316 µM
  viability, T/C: 83.1%
Second compound 3.16 µM, first compound 0.1 µM
  viability, T/C: 95.4%
Second compound 3.16 µM, first compound 0.316 µM
  viability, T/C: 82%
Second compound 3.16 µM, first compound 1 µM
  viability, T/C: 83.1%
Second compound 3.16 µM, first compound 3.16 µM
  viability, T/C: 87.6%
Second compound 3.16 µM, first compound 10 µM
  viability, T/C: 96.6%
Second compound 10 µM, first compound 0.0316 µM
  viability, T/C: 76.8%
Second compound 10 µM, first compound 0.1 µM
  viability, T/C: 93.4%
Second compound 10 µM, first compound 0.316 µM
  viability, T/C: 83%
Second compound 10 µM, first compound 1 µM
  viability, T/C: 96.1%
Second compound 10 µM, first compound 3.16 µM
  viability, T/C: 109%
Second compound 10 µM, first compound 10 µM
  viability, T/C: 88%

## Cn1cnc2c(F)c(Nc3ccc(Br)cc3Cl)c(C(=O)NOCCO)cc21 + CC(Nc1ncnc2nc[nH]c12)c1cc2cccc(Cl)c2c(=O)n1-c1ccccc1
Second compound 0.0316 µM
  IC50: 0.897 µM
Second compound 0.1 µM
  IC50: 0.984 µM
Second compound 0.316 µM
  IC50: 0.909 µM
Second compound 1 µM
  IC50: 0.699 µM
Second compound 3.16 µM
  IC50: 0.822 µM
Second compound 10 µM
  IC50: 0.725 µM
Second compound 0.0316 µM, first compound 0.00949 µM
  viability, T/C: 95.4%
Second compound 0.0316 µM, first compound 0.03 µM
  viability, T/C: 99.9%
Second compound 0.0316 µM, first compound 0.0949 µM
  viability, T/C: 86.3%
Second compound 0.0316 µM, first compound 0.3 µM
  viability, T/C: 70.7%
Second compound 0.0316 µM, first compound 0.949 µM
  viability, T/C: 50.1%
Second compound 0.0316 µM, first compound 3 µM
  viability, T/C: 24.9%
Second compound 0.1 µM, first compound 0.00949 µM
  viability, T/C: 99.5%
Second compound 0.1 µM, first compound 0.03 µM
  viability, T/C: 88.6%
Second compound 0.1 µM, first compound 0.0949 µM
  viability, T/C: 82.2%
Second compound 0.1 µM, first compound 0.3 µM
  viability, T/C: 91.5%
Second compound 0.1 µM, first compound 0.949 µM
  viability, T/C: 50.9%
Second compound 0.1 µM, first compound 3 µM
  viability, T/C: 24.2%
Second compound 0.316 µM, first compound 0.00949 µM
  viability, T/C: 100%
Second compound 0.316 µM, first compound 0.03 µM
  viability, T/C: 103%
Second compound 0.316 µM, first compound 0.0949 µM
  viability, T/C: 80.2%
Second compound 0.316 µM, first compound 0.3 µM
  viability, T/C: 65%
Second compound 0.316 µM, first compound 0.949 µM
  viability, T/C: 57.2%
Second compound 0.316 µM, first compound 3 µM
  viability, T/C: 16%
Second compound 1 µM, first compound 0.00949 µM
  viability, T/C: 89.8%
Second compound 1 µM, first compound 0.03 µM
  viability, T/C: 78.4%
Second compound 1 µM, first compound 0.0949 µM
  viability, T/C: 77.3%
Second compound 1 µM, first compound 0.3 µM
  viability, T/C: 71.7%
Second compound 1 µM, first compound 0.949 µM
  viability, T/C: 41.9%
Second compound 1 µM, first compound 3 µM
  viability, T/C: 22.2%
Second compound 3.16 µM, first compound 0.00949 µM
  viability, T/C: 92.8%
Second compound 3.16 µM, first compound 0.03 µM
  viability, T/C: 80.4%
Second compound 3.16 µM, first compound 0.0949 µM
  viability, T/C: 80.9%
Second compound 3.16 µM, first compound 0.3 µM
  viability, T/C: 57.9%
Second compound 3.16 µM, first compound 0.949 µM
  viability, T/C: 55.9%
Second compound 3.16 µM, first compound 3 µM
  viability, T/C: 15.5%
Second compound 10 µM, first compound 0.00949 µM
  viability, T/C: 87.8%
Second compound 10 µM, first compound 0.03 µM
  viability, T/C: 85.6%
Second compound 10 µM, first compound 0.0949 µM
  viability, T/C: 70%
Second compound 10 µM, first compound 0.3 µM
  viability, T/C: 76.4%
Second compound 10 µM, first compound 0.949 µM
  viability, T/C: 42%
Second compound 10 µM, first compound 3 µM
  viability, T/C: 14.1%
